How the values were obtained:
Assay in all cases: normalised viability (% of control), CellTiter-Blue; higher = more viable cells (about 100 = DMSO control)
CAL-85-1 [1] = conditions: 3000 nM; incubation time: 72 h
Method: (§1)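 DSRT, CellTiter-Blue viability, 72 h incubation. Signal is normalised to DMSO and benzethonium chloride controls. Value is the normalised response at dose 8.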

HDQ-P1 [2] = conditions: 3000 nM; incubation time: 72 h
Method: as §1

DU-4475 [3] = conditions: 3000 nM; incubation time: 72 h
Method: as §1

CAL-51 [4] = conditions: 3000 nM; incubation time: 72 h
Method: as §1

MDA-MB-453 [5] = conditions: 3000 nM; incubation time: 72 h
Method: as §1

CAL-148 [6] = conditions: 3000 nM; incubation time: 72 h
Method: as §1

CAL-85-1 [7] = conditions: 300 nM; incubation time: 72 h
Method: (§2)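 DSRT, CellTiter-Blue viability, 72 h incubation. Signal is normalised to DMSO and benzethonium chloride controls. Value is the normalised response at dose 6.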

MDA-MB-453 [8] = conditions: 300 nM; incubation time: 72 h
Method: as §2

CAL-148 [9] = conditions: 300 nM; incubation time: 72 h
Method: as §2

MDA-MB-468 = conditions: incubation time: 72 h
Method in brief: (§3)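 Each entry is normalised viability at a single listed concentration within a series. It comes from breast cancer cell lines incubated 72 h with compound in 384-well plates, then measured with CellTiter-Blue fluorescence at 560/590 nm. Every plate was normalised between vehicle (100) and a positive kill control (0).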

BT-549 = conditions: incubation time: 72 h
Method in brief: as §3

HCC1599 = conditions: incubation time: 72 h
Method in brief: as §3

Hs578T = conditions: incubation time: 72 h
Method in brief: as §3

CAL-85-1 [10] = conditions: incubation time: 72 h
Method in brief: as §3

MDA-MB-436 = conditions: incubation time: 72 h
Method in brief: as §3

SK-BR-3 = conditions: incubation time: 72 h
Method in brief: as §3

HDQ-P1 [11] = conditions: incubation time: 72 h
Method in brief: as §3

CAL-120 = conditions: incubation time: 72 h
Method in brief: as §3

MFM-223 = conditions: incubation time: 72 h
Method in brief: as §3

DU-4475 [12] = conditions: incubation time: 72 h
Method in brief: as §3

HCC1143 = conditions: incubation time: 72 h
Method in brief: as §3

BT-474 = conditions: incubation time: 72 h
Method in brief: as §3

CAL-51 [13] = conditions: incubation time: 72 h
Method in brief: as §3

MDA-MB-453 [14] = conditions: incubation time: 72 h
Method in brief: as §3

CAL-148 [15] = conditions: incubation time: 72 h
Method in brief: as §3

MDA-MB-231 = conditions: incubation time: 72 h
Method in brief: as §3

Nc1nc2[nH]cc(CCc3ccc(C(=O)N[C@@H](CCC(=O)O)C(=O)O)cc3)c2c(=O)[nH]1 [Pemetrexed]
Conditions	normalised viability [%]
CAL-51 [4]	109
CAL-85-1 [1]	62.6
CAL-85-1 [7]	107
CAL-148 [6]	99.3
CAL-148 [9]	106
DU-4475 [3]	124
HDQ-P1 [2]	109
MDA-MB-453 [5]	83
MDA-MB-453 [8]	102

normalised viability [%]
Conditions	3 nM	10 nM	30 nM	100 nM	1000 nM	10000 nM
BT-474	–	123	–	–	112	122
BT-549	–	90.8	–	–	90.7	79.6
CAL-51 [13]	105	–	100	107	–	–
CAL-85-1 [10]	99.6	–	91	101	–	–
CAL-120	–	84.2	–	–	77.4	63.3
CAL-148 [15]	95	–	105	106	–	–
DU-4475 [12]	106	–	117	108	–	–
HCC1143	–	90.8	–	–	77.4	72.2
HCC1599	–	106	–	–	80.2	106
HDQ-P1 [11]	110	–	100	101	–	–
Hs578T	–	124	–	–	106	82.5
MDA-MB-231	–	97.5	–	–	98.9	92.4
MDA-MB-436	–	107	–	–	75.3	82.5
MDA-MB-453 [14]	128	–	96	114	–	–
MDA-MB-468	–	97.7	–	–	71.9	99.5
MFM-223	–	96.2	–	–	101	98.2
SK-BR-3	–	97.5	–	–	59.2	62.2

Source: the supplement of paper PMC4862054
